# Data taken from patent US6486199B1, “Spiro and dispiro 1,2,4-trioxolane antimalarials” (Medicines for Malaria Venture MMV International Centre …, priority 2001, dated 2002).
# Read-outs that look alike come from different tables or passages of the source. Marks after values point to notes of the source that are not given here.
# Tests used:
# [1] = tested on: chloroquine-sensitive NF54 strain of P. falciparum; assay: in vitro screen against chloroquine-sensitive NF54 strain of P. falciparum; format: cell-based; details: for IC50: Plasmodium falciparum
# [2] = tested on: ANKA strain of P. Berghei; assay: single dose STI in vivo screen in infected Moro SPF mice; details: for antimalarial activity, overall assessment: overall judgement of in vitro and in vivo data of Table 2; for Activity (%) po / Activity (%) sc: percent reduction in parasitemia day 3 post-infection; for Survival (days) po / Survival (days) sc: survival to day 30 = cure
# Protocol: In the single dose STI in vivo screen, Moro SPF mice infected with the ANKA strain of P. Berghei (groups of three mice) were treated on day one post-infection with trioxolanes dissolved or suspended in 3% ethanol and 7% Tween 80. […] Antimalarial activity was measured by percent redution in parasitemia on day three post-infection and survival times compared to an untreated control group. Survival to day 30 post-infection is considered to be a cure.
# [3] = differential scanning calorimetry (DSC), thermal stability; format: physicochemical; details: thermal decomposition
# [4] = tested on: chloroquine-resistant K1 strain of P. falciparum; assay: in vitro screen against chloroquine-resistant K1 strain of P. falciparum; format: cell-based; details: for IC50: Plasmodium falciparum
# [5] = tested on: 21-day-old schistosomules of Schistosoma mansoni; assay: effect on 21-day-old schistosomules in mice; format: in vivo; details: single 200 mg/kg per os; for FWR (%): female worm reduction rate; for Mean female worm burden: mean ± standard deviation; for TWR (%): total worm reduction rate
# Protocol: […] Each group was treated per os with OZ compounds at a single dose of 200 mg/kg. Untreated mice served as the control. All groups were killed 4 weeks after treatment and the liver and intestine were removed and separated. The liver and intestine were compressed and alive male and female worms could be seen and counted. The effect of the compounds was evaluated by mean total and female worm burden.
# [6] = tested on: adult schistosomes (49-day-old) of Schistosoma mansoni; assay: effect on adult schistosomes (49-day-old) in mice; format: in vivo; details: single 400 mg/kg per os; for TWR (%): total worm reduction rate; for Mean total worm burden: x ± SD
# Protocol: Mice were infected with 100 Schistosoma mansoni cercariae […]. Each group was treated per os with OZ compounds at a single dose of 400 mg/kg. Untreated mice served as the control. All groups were killed 4 weeks after treatment and the liver and intestine were removed and separated. The liver and intestine were compressed and alive male and female worms could be seen and counted.
# [7] = tested on: P. berghei; assay: 1-day Peters test against P. berghei in vivo; details: 1 day
# [8] = tested on: P. berghei; assay: 4-day Peters test against P. berghei in vivo; details: 4 day
# [9] = in vitro, K1 strain, read-out: IC50 (ng/ml) K1
# [10] = in vitro, NF54 strain, read-out: IC50 (ng/ml) NF54
smiles,measurement,setting,value
"O=C(CCl)N1CCC2(CC1)OOC1(O2)C2CC3CC(C2)CC1C3 (centres unmarked) [OZ87, Adamantane-2-spiro-3′-8′-chloroacetyl-1′,2′,4′-trioxa-8′-azaspiro[4.5]decane]",IC50 (ng/ml) NF54,"[1]; in vitro, NF54 strain",/4.5 ng/ml
same,"antimalarial activity, overall assessment",[2],much less active
same,Tm dec. (° C.),[3],149.7 °C
"CCOC(=O)CC1CCC2(CC1)OOC1(O2)C2CC3CC(C2)CC1C3 (centres unmarked) [OZ61, Adamantane-2-spiro-3′-8′-ethoxycarbonylmethyl-1′,2′,4′-trioxaspiro[4.5]decane]",IC50 (ng/ml) K1,"[4]; in vitro, K1 strain",0.52 ng/mL
same,IC50 (ng/ml) NF54,"[1]; in vitro, NF54 strain",0.53 ng/mL
same,in vivo activity,[2]; 10 mg/kg po/sc data of Table 2,modest
same,Tm dec. (° C.),[3],161.7 °C
"CC(C)(C)C1CCC2(CC1)OOC1(O2)C2CC3CC(C2)CC1C3 (centres unmarked) [OZ18, Adamantane-2-spiro-3′-8′-t-butyl-1′,2′,4′-trioxaspiro[4.5]decane]","antimalarial activity, overall assessment",[2],completely inactive
same,Activity (%) po,[2]; single 10 mg/kg po,0/0%
same,Activity (%) sc,[2]; single 10 mg/kg sc,0/0%
same,FWR (%),[5],9%
same,Mean female worm burden,[5],11.4 ± 2.7^a
same,TWR (%),[5],12%
same,Percentage of dead worm,[6],0
same,Total dead worm,[6],0
same,TWR (%),[6],0.6%
same,Mean total worm burden,[6],35.6 ± 7.2^a
same,Tm dec. (° C.),[3],166.5 °C
"O=C1CCC2(CC1)OOC1(CCCCC1)O2 [OZ02, 3-Oxo-7,14,15-trioxadispiro[5.1.5.2]pentadecane]",IC50,[4]; [9],> 100 ng/mL
same,IC50,[1]; [10],94 ng/mL
same,"antimalarial activity, overall assessment",[2],less active
same,Activity (%) po,[2]; single 100 mg/kg po,0/0%
same,Activity (%) sc,[2]; single 100 mg/kg sc,0/0%
same,Survival (days) po,[2]; single 100 mg/kg po,5.0/5.0 days
same,Survival (days) sc,[2]; single 100 mg/kg sc,5.0/5.0 days
same,Tm dec. (° C.),[3],193.3 °C
"O=S1(=O)CCC2(CC1)OOC1(O2)C2CC3CC(C2)CC1C3 (centres unmarked) [OZ50, Adamantane-2-spiro-3′-1′,2′,4′-trioxa-8′-thiaspiro[4.5]decane 8′,8′-dioxide]",IC50,[4]; [9],1.1 ng/mL
same,IC50,[1]; [10],1.2 ng/mL
same,Tm dec. (° C.),[3],147.1 °C
"OCCC1CCC2(CC1)OOC1(O2)C2CC3CC(C2)CC1C3 (centres unmarked) [OZ89, Adamantane-2-spiro-3′-8′-(2′-hydroxyethyl)-1′,2′,4′-trioxaspiro[4.5]decane]",IC50 (ng/ml) NF54,"[1]; in vitro, NF54 strain",/1.0 ng/ml
same,"antimalarial activity, overall assessment",[2],quite active
same,Tm dec. (° C.),[3],154.7 °C
"O=C(CO)N1CCC2(CC1)OOC1(O2)C2CC3CC(C2)CC1C3 (centres unmarked) [OZ83, Adamantane-2-spiro-3′-8′-hydroxyacetyl-1′,2′,4′-trioxa-8′-azaspiro[4.5]decane]",IC50 (ng/ml) NF54,"[1]; in vitro, NF54 strain",/1.0 ng/ml
same,"antimalarial activity, overall assessment",[2],very active
same,Tm dec. (° C.),[3],163.6 °C
"FC1CCCCC12OOC1(CCCCC1)O2 (centres unmarked) [OZ06, 1-Fluoro-7,14,15-trioxadispiro[5.1.5.2]pentadecane]",IC50,"[4]; K1, read-out: IC50 (ng/ml) K1",18 ng/mL
same,IC50,"[1]; NF54, read-out: IC50 (ng/ml) NF54",22 ng/mL
same,"antimalarial activity, overall assessment",[2],less active
same,Survival (days) po,[2]; single 100 mg/kg po,1.0/1.0 days
same,Survival (days) sc,[2]; single 100 mg/kg sc,1.0/1.0 days
"CON=C1CCC2(CC1)OOC1(O2)C2CC3CC(C2)CC1C3 (centres unmarked) [OZ15, Adamantane-2-spiro-3′-8′-methoxyimino-1′,2′,4′-trioxaspiro[4.5]decane]",P. berghei (1 day) ED50 po,[7]; po,3.1 mg/kg
same,P. berghei (1 day) ED90 po,[7]; po,5.9 mg/kg
same,P. berghei (1 day) ED50 sc,[7]; sc,0.7 mg/kg
same,P. berghei (1 day) ED90 sc,[7]; sc,2.6 mg/kg
same,P. berghei (4 day) ED50 po,[8]; po,2.9 mg/kg
same,P. berghei (4 day) ED90 po,[8]; po,6.3 mg/kg
same,P. berghei (4 day) ED50 sc,[8]; sc,0.7 mg/kg
same,P. berghei (4 day) ED90 sc,[8]; sc,1.1 mg/kg
same,FWR (%),[5],70%
same,Mean female worm burden,[5],3.8 ± 2.4^b
same,TWR (%),[5],63%
same,Percentage of dead worm,[6],10 (21/210)
same,Total dead worm,[6],21
same,TWR (%),[6],0%
same,Mean total worm burden,[6],37.8 ± 20.6
same,Tm dec. (° C.),[3],157.8 °C
"CC1(O)CCC2(CC1)OOC1(O2)C2CC3CC(C2)CC1C3 (centres unmarked) [OZ90, Adamantane-2-spiro-3′-8′-hydroxy-8′-methyl-1′,2′,4′-trioxaspiro[4.5]decane]",IC50 (ng/ml) NF54,"[1]; in vitro, NF54 strain",/1.1 ng/ml
same,"antimalarial activity, overall assessment",[2],quite active
same,Tm dec. (° C.),[3],153.2 °C
"CC(=O)OCC(=O)N1CCC2(CC1)OOC1(O2)C2CC3CC(C2)CC1C3 (centres unmarked) [OZ82, Adamantane-2-spiro-3′-8′-acetoxyacetyl-1′,2′,4′-trioxa-8′-azaspiro[4.5]decane]",IC50 (ng/ml) NF54,"[1]; in vitro, NF54 strain",/1.3 ng/ml
same,"antimalarial activity, overall assessment",[2],very active
same,Tm dec. (° C.),[3],153.7 °C
